PubChem BioAssay (NCI)
“And” between values parts separate entries of the source, which are not always exact repeats. Equal values may be shown once.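 Where inhibition never reached the appropriate level, the endpoint shown equals the highest concentration tested. Otherwise, values were interpolated linearly from a five-concentration, 48-hour dose response in 96-well plates. Here, GI50 denotes the concentration required for 50% inhibition of growth. TGI marks complete inhibition of growth.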

Columns and labels:
Assay in all cases: NCI tumour cell line growth inhibition, 48 h
[1] = tested on: LOX IMVI melanoma
[2] = tested on: COLO 205 colon
[3] = tested on: SNB-19 CNS
[4] = tested on: A549 NSCLC
[5] = tested on: SN12C renal
[6] = tested on: SW-620 colon
[7] = tested on: UO-31 renal
[8] = tested on: SF-268 CNS
[9] = tested on: HT29 colon
[10] = tested on: NCI-H522 lung

SMILES | TGI [1] | TGI [2] | TGI [3] | TGI [4] | TGI [5] | TGI [6] | TGI [7] | TGI [8] | TGI [9] | TGI [10] | GI50 [1] | GI50 [2] | GI50 [3] | GI50 [5] | GI50 [6] | GI50 [7] | GI50 [8] | GI50 [9] | GI50 [10] | GI50 [4]
C1=Nc2ccccc2Cn2nncc21 | > 100 µM | > 100 µM | > 100 µM | > 100 µM | > 100 µM | > 100 µM | > 100 µM | > 100 µM | > 100 µM | > 100 µM | – | – | – | – | – | – | – | – | – | –
CC(C)(C)CNCCCNc1ccc(Cl)cc1 | 46.9 µM | 45.3 µM | > 100 µM | > 100 µM | > 100 µM | > 100 µM | > 100 µM | > 100 µM | 56.5 µM | > 100 µM | – | – | – | – | – | – | – | – | – | –
Clc1ccc(C2CC(c3cccc(Nc4ccncc4)c3)=NN2c2ccccc2)cc1 (centres undefined) | 3.06 µM | 4.5 µM | 3.18 µM | – | 3.31 µM | 3.34 µM | 2.79 µM | 3.84 µM | 3.62 µM | 3.24 µM | 1.64 µM | 1.96 µM | 1.71 µM | 1.78 µM | 1.67 µM | 1.47 µM | 1.87 µM | 1.69 µM | 1.57 µM | –
CC(C)=CC1C(COC(=O)c2ccccc2Cl)C1(C)C (centres undefined) | 38.9 µM | – | > 100 µM | > 100 µM | > 100 µM | > 100 µM | > 100 µM | > 100 µM | > 100 µM | 49.5 µM | – | – | – | – | – | – | – | – | – | –
O=[N+]([O-])c1ccc(NNN=Nc2ccc(-c3nc4ccccc4[nH]3)cc2)c([N+](=O)[O-])c1 | > 100 µM | > 100 µM | > 100 µM | > 100 µM | > 100 µM | > 100 µM | > 100 µM | > 100 µM | > 100 µM | 61 µM | – | – | – | – | – | – | – | – | – | –
CCN(CC)CCCC(C)Nc1c2ccc(Cl)cc2nc2cc(Cl)ccc12 (centres undefined) | 6.94 µM | 5.01 µM | 40.8 µM | 18.1 µM | 17.3 µM | 12.5 µM | 11.5 µM | 16.3 µM | 8.28 µM | 17.5 µM | – | – | – | – | – | – | – | – | – | –
CC(C)C(=O)Nc1ccc(-c2nc(-c3cccc(OCCN4CCOCC4)c3)c(-c3ccnc(Br)c3)[nH]2)cc1 | 3.57 µM | 6.59 µM | > 100 µM | > 100 µM | > 100 µM | 8.59 µM | 7.23 µM | > 100 µM | – | 48.7 µM | 1.7 µM | 2.42 µM | 3.46 µM | 4.46 µM | 2.87 µM | 2.36 µM | 4.26 µM | – | 3.26 µM | 3.73 µM
CC(C)NC(=O)OCc1nnn2c1CCC2 | > 100 µM | – | – | > 100 µM | > 100 µM | > 100 µM | > 100 µM | – | > 100 µM | > 100 µM | – | – | – | – | – | – | – | – | – | –
COC1=CC(=O)c2c(c(COC(C)=O)cn2C)C1=O | 0.431 µM | 0.0943 µM | 8.18 µM | 0.509 µM | 0.325 µM | 0.193 µM | 0.551 µM | 0.808 µM | 0.124 µM | 0.0405 µM | – | – | – | – | – | – | – | – | – | –
Clc1ccc(OCc2nnc3sc(SSc4nn5c(COc6ccc(Cl)cc6)nnc5s4)nn23)cc1 | > 100 µM | > 100 µM | > 100 µM | > 100 µM | > 100 µM | > 100 µM | > 100 µM | > 100 µM | > 100 µM | > 100 µM | – | – | – | – | – | – | – | – | – | –
CC[C@@]1(O)C(=O)OCc2c1cc1n(c2=O)Cc2cc3c(CN(C)C)c(O)ccc3nc2-1 | 362 nM [middle of 4 runs] | 4.85 µM [middle of 4 runs] | – | – | – | – | 0.273 µM and 1.89 µM and 0.607 µM | – | 8.1 µM and 20.2 µM and 6.7 µM | – | – | 0.384 µM and 0.089 µM and 0.855 µM | < 0.0131 µM and 0.026 µM | < 0.01 µM and 0.00456 µM and 0.0248 µM | – | 0.0169 µM and 0.118 µM and 0.0299 µM | < 0.01 µM and 0.00517 µM and 0.0175 µM | 0.0669 µM and 0.0589 µM and 0.24 µM | < 0.025 µM and 0.0206 µM and 0.0416 µM | 0.0545 µM and 0.08 µM
CC1(CO)C(O)CCC2(C)C1C(O)CC1CC3CC12CCC3(O)CO (centres undefined) | > 225 µM | > 225 µM | > 225 µM | > 225 µM | > 225 µM | > 225 µM | > 225 µM | > 225 µM | > 225 µM | > 225 µM | – | – | – | – | – | – | – | – | – | –
CC(C(=O)NCCNC(=O)CCCC(=O)N(C)O)C(=O)NCCNC(=O)CCCC(=O)N(C)O | > 100 µM | > 100 µM | > 100 µM | > 100 µM | – | > 100 µM | > 100 µM | > 100 µM | > 100 µM | > 100 µM | – | – | – | – | – | – | – | – | – | –
Fc1ccc(Nc2ncc(-c3cc(F)c(Cl)cc3Cl)s2)cc1Cl | 96 µM | > 100 µM | > 100 µM | 31.3 µM | > 100 µM | 24.9 µM | 42.1 µM | 20.3 µM | > 100 µM | 44.3 µM | 9.08 µM | 28.5 µM | > 100 µM | 3.91 µM | 5.47 µM | 17.1 µM | 5.63 µM | 24.3 µM | 20.8 µM | 14.9 µM
COc1cc(/C=N/N=C(\N)NO)ccc1O | > 100 µM | > 100 µM | > 100 µM | > 100 µM | > 100 µM | > 100 µM | > 100 µM | > 100 µM | > 100 µM | > 100 µM | – | – | – | – | – | – | – | – | – | –
CN(CC(=O)O)CC(=O)O | > 100 µM | > 100 µM | > 100 µM | > 100 µM | > 100 µM | > 100 µM | > 100 µM | > 100 µM | > 100 µM | > 100 µM | – | – | – | – | – | – | – | – | – | –
OCC(O)C(O)C(O)C(O)CNCCO/N=C1/C(c2c(O)[nH]c3ccccc23)=Nc2ccccc21 (centres undefined) | 17.3 µM | 40.6 µM | 35.9 µM | > 50 µM | 46.4 µM | > 50 µM | > 50 µM | 28 µM | > 50 µM | 33 µM | – | – | – | – | – | – | – | – | – | –
Fc1cc(C2=Nn3c(CNc4ccc(Cl)cc4)nnc3S/C2=C\c2ccc(-c3ccc(Cl)cc3)o2)c(Cl)cc1Cl | > 100 µM | 88.6 µM | > 100 µM | > 100 µM | > 100 µM | > 100 µM | > 100 µM | > 100 µM | > 100 µM | > 100 µM | – | – | – | – | – | – | – | – | – | –
CNCCCn1c2c(c3ccc(Cl)cc3c1=O)C(=O)c1cc(OC)cnc1-2 | – | – | 2.26 µM | – | 3.04 µM | 1.98 µM | 2.64 µM | 2.19 µM | 2.45 µM | – | – | – | 0.614 µM | 1.18 µM | 0.0762 µM | 1.08 µM | 0.397 µM | 1.08 µM | – | –
O=S(=O)(Nc1nccs1)c1ccc([As](=O)(O)O)cc1 | > 100 µM | > 100 µM | > 100 µM | > 100 µM | > 100 µM | > 100 µM | > 100 µM | > 100 µM | > 100 µM | > 100 µM | – | – | – | – | – | – | – | – | – | –
O=c1ccc2c(Cl)cccc2o1 | > 100 µM | > 100 µM | > 100 µM | > 100 µM | > 100 µM | > 100 µM | > 100 µM | > 100 µM | – | > 100 µM | – | – | – | – | – | – | – | – | – | –
COc1ccc(N2C(=O)C(=O)N(C)C2=O)c2ccccc12 | > 10 µM | > 10 µM | > 10 µM | > 10 µM | > 10 µM | > 10 µM | > 10 µM | > 10 µM | > 10 µM | > 10 µM | – | – | – | – | – | – | – | – | – | –
CSC1=C(SC)C(=O)c2cn(C)c(=O)cc2C1=O | 3.91 µM | 2.89 µM | 31.1 µM | 36.9 µM | 12.3 µM | 2.58 µM | 3.13 µM | 17 µM | 13.1 µM | 2.19 µM | – | – | – | – | – | – | – | – | – | –
O=[N+]([O-])c1ccc(Cc2nc3cc4ccccc4cc3[nH]2)cc1C(F)(F)F | > 100 µM | 34.3 µM | 39 µM | 64.8 µM | 38 µM | 62.2 µM | 40.4 µM | 39 µM | > 100 µM | 70.6 µM | – | – | – | – | – | – | – | – | – | –
OC(c1ccccc1)C1CC2C=CC1C2 (centres undefined) | > 100 µM | > 100 µM | > 100 µM | > 100 µM | > 100 µM | > 100 µM | > 100 µM | > 100 µM | > 100 µM | > 100 µM | – | – | – | – | – | – | – | – | – | –
